The target of one series is T1, human AT1R (Homo sapiens, UniProt P30556).
T1 construct: host or cells: HEK-293
T1 sequence (P30556 1-359): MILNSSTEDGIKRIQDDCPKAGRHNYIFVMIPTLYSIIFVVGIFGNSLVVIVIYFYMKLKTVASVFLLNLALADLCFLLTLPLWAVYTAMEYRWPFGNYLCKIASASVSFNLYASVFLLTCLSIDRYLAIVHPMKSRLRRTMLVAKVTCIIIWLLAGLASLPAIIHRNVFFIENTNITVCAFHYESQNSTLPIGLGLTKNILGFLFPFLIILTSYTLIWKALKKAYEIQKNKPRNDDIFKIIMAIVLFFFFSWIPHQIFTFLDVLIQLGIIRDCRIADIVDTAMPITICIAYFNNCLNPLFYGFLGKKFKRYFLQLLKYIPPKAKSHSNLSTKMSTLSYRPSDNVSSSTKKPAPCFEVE
Type of series: binding. The note with it: HEK-293 cell membranes.

The next series deals with T2, human AT2R (Homo sapiens, UniProt P50052).
T2 construct: host or cells: HEK-293
T2 sequence (P50052 1-363): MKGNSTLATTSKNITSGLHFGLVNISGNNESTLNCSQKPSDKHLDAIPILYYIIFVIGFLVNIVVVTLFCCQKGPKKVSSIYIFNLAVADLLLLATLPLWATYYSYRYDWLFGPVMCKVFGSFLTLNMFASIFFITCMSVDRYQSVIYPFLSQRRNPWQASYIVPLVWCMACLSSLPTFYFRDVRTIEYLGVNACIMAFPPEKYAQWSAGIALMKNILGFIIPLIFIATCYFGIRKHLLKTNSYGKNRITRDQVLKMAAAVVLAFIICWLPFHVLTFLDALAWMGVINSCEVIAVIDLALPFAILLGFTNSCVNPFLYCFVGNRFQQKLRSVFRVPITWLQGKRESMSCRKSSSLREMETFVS
The class given is binding. The note with it: HEK-293 cell membranes.

The target of a further series is T3, CYP2C8 (Homo sapiens, UniProt P10632).
T3 sequence (P10632 1-490): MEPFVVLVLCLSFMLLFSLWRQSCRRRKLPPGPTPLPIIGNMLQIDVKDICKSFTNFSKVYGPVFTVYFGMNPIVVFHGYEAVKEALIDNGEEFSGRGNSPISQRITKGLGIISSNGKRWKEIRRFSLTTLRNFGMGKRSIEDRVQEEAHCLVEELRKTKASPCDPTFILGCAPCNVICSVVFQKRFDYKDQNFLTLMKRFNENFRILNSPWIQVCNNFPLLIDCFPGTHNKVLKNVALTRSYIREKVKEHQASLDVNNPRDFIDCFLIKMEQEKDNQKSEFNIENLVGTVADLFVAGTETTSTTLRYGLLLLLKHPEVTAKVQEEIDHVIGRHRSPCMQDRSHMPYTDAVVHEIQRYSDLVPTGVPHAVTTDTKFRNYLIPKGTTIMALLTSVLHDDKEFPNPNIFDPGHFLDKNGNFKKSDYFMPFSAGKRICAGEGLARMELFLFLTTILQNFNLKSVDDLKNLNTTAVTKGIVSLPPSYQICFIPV
Put plainly: CYP450 inhibition assay, pooled human liver microsomes, amodiaquine substrate. The note with it: for CYP 450 Inhibition CYP2C8: at 10 μM; for inhibition at 10 min, 10 µM: both, human, pooled human liver microsomes, pH 7.4, probe amodiaquine. For orientation: Microsomes from liver hold many membrane-bound enzymes, among them those of drug oxidation.

Another series has as its system CYP3A. In words: CYP450 inhibition assay, pooled human liver microsomes, testosterone substrate. The note with it: both, human, pooled human liver microsomes, pH 7.4, probe testosterone, CYP 450 Inhibition CYP3A testosterone, at 10 μM.

The source of these data is patent publication US20230159467A1, “NOVEL COMPOUNDS USEFUL IN THE TREATMENT AND/OR PREVENTION OF A DISEASE, DISORDER OR CONDITION ASSOCIATED WITH ANGIOTENSIN II” (Vicore Pharma AB, priority 2020, published 2023).

Take `CCCCOC(=O)NS(=O)(=O)c1sc(CC(C)C)nc1-c1ccc(Cn2ccnc2C(C)(C)C)cc1` [Example 4, Butyl ((4-(4-((2-(tert-butyl)-1H-imidazol-1-yl)methyl)phenyl)-2-isobutylthiazol-5-yl)sulfonyl) carbamate]: the results for the Ki on human AT1R and on human AT2R were ~1000 nM and 18 nM, respectively. For the same compound, the “CYP 450 Inhibition CYP2C8” value at CYP2C8 worked out at 70%. Moreover, the inhibition (as a rule, the drop in the measured response relative to a control, in per cent) at 10 min, 10 µM in the series on CYP3A was 7.5%.

On to `CCCCOC(=O)[N-]S(=O)(=O)c1sc(CC(C)C)cc1-c1ccc(Cn2ccnc2C(C)(C)C)cc1.[K+]` [Example 11B, Potassium (butoxycarbonyl)((3-(4-((2-(tert-butyl)-1H-imidazol-1-yl)methyl)phenyl)-5-isobutylthiophen-2-yl)sulfonyl)amide], for which the Ki – broadly, the equilibrium dissociation constant of an inhibitor or competing ligand from its target – on human AT1R was ~1000 nM; on human AT2R, 6.6 nM. Further, the inhibition at 10 min, 10 µM amounted to 81% against CYP2C8 and 21% with CYP3A.

On to `COC(=O)NS(=O)(=O)c1sc(CC(C)C)nc1-c1ccc(Cn2ccnc2C(C)(C)C)cc1` [Example 3, Methyl ((4-(4-((2-(tert-butyl)-1H-imidazol-1-yl)methyl)phenyl)-2-isobutylthiazol-5-yl)sulfonyl) carbamate], for which the values for the Ki at human AT1R and on human AT2R were ~1000 nM and 29 nM, respectively. For the same compound, on CYP2C8, the “CYP 450 Inhibition CYP2C8” value worked out at 26%. In addition, the inhibition at 10 min, 10 µM in the series on CYP3A worked out at 2.7%.

As for `COC(=O)NS(=O)(=O)c1ccc(CC(C)C)cc1-c1ccc(Cn2ccnc2C(C)(C)C)cc1` [Example 1A, Methyl ((4′-((2-(tert-butyl)-1H-imidazol-1-yl)methyl)-5-isobutyl-[1,1′-biphenyl]-2-yl)sulfonyl)carbamate], the figures for the Ki at human AT1R and on human AT2R were ~1000 nM and 1.1 nM, respectively. The inhibition at 10 min, 10 µM against CYP2C8 turned out to be 67%; in the series on CYP3A, 14%.

In the case of `COC(=O)[N-]S(=O)(=O)c1ccc(CC(C)C)cc1-c1ccc(Cn2ccnc2C(C)(C)O)cc1.[K+]` [Example 8B, Potassium ((4′-((2-(2-hydroxypropan-2-yl)-1H-imidazol-1-yl)methyl)-5-isobutyl-[1,1′-biphenyl]-2-yl)sulfonyl)(methoxycarbonyl)amide], the Ki on human AT1R was ~1000 nM; at human AT2R it was 3.2 nM. In addition, the inhibition at 10 min, 10 µM at CYP2C8 is 64%; in the series on CYP3A it was 10.7%.
